According to patent US5840893A, “Compounds for treating infectious diseases” (priority 1996, dated 1998):
“And” between values parts separate entries of the source, which are not always exact repeats. Identical values can stand only once. “Also recorded” adds a separate entry of the source. Like-named read-outs stand apart in the source and are kept apart here.

Tests used:
[1] = test system: nuclear localization; conditions: literature; cited from earlier work
[2] = test system: Plasmodium falciparum clone W2mef; experiment: Antimalarial activity in vitro, hypoxanthine incorporation, clone W2mef; type: cell-based
Experimental: (§1) The antimalarial activity of the compounds was determined essentially as described in Desjardins et al. supra. Fifty Al of various concentrations of a compound of the invention, chloroquine, or pyrimethamine were added to the wells of microtiter plates, followed by 200 Al of ring-stage, synchronized, P. falciparum-infected erythrocytes (final hematocrit=1.5%, final parasitemia=1-5%). The plates were incubated for 24 hr in a candle jar kept at 37° C., and then 25 μl of [^3 H]-hypoxanthine (Amersham, Arlington Heights, Ill.; 2.5 μl Ci/well) was added. The plates were then incubated for a further 24 hr, before harvesting onto Unifilter-96 GF/C filter-microplates (Packard; Meriden, Conn.). Twenty-five μl of Microscint scintillation fluid (Packard) was added to each well of the filter-microplate, which was subsequently counted in a Top-count microplate scintillation counter (Packard). The percent of [^3 H] -hypoxanthine uptake relative to control infect-erythrocytes was used to determine the IC50 value for the compounds by non-linear regression for LD50 determination.

[3] = test system: Plasmodium falciparum clone FCR-3; experiment: Antimalarial activity in vitro, hypoxanthine incorporation, clone FCR-3; type: cell-based
Experimental: as §1

[4] = test system: Plasmodium berghei; experiment: Four day suppression test in Plasmodium berghei infected mice; type: in vivo, Plasmodium berghei NYU-2 in female ND4 Swiss Webster mice
Experimental: FIG. 9. The activity of CNI-0294 against Plasmodium berghei infected mice. Female ND4 Swiss Webster mice were infected with infected erythrocytes and then treated once daily, for four days, with 50 mg/kg CNI-0294, or with distilled water. Six hours after the last dose, thin blood smears were made from each of the animals and the parasitemia was determined. The bars represent the median parasitemia (n=4 for controls and n=5 for treated).
The antimalarial activity of CNI-0294 in vivo was assessed by infecting female ND4 Swiss Webster mice with 100 μl of Plasmodium berghei NYU-2 infected mouse erythrocytes (50% parasitemia) by intraperitoneal injection. The animals were subsequently injected intraperitoneally once per day on days 1-4 of the infection with 0.5 ml water or 0.5 ml of 50 mg/kg CNI-0294 in water. Four hours after the final injection, small blood samples were taken from the tail, and thin smears stained with Dif-Quick (Baxter, Miami, Fla.). The parasitemia of control and treated animals was enumerated by inspection of at least 1000 erythrocytes in each animal.

[5] = test system: Plasmodium falciparum clone D10; experiment: Antimalarial activity in vitro, hypoxanthine incorporation, clone D10; type: cell-based
Experimental: as §1

[6] = test system: Plasmodium falciparum; experiment: Antimalarial activity in vitro, hypoxanthine incorporation, series of clones; type: cell-based
Experimental: as §1

[7] = in vivo; conditions: mouse, plasma
Experimental: (§4) Standard addition curves for each test compound were constructed by adding increased amounts of drug to mouse or human A^+ plasma (Long Island Blood Services; Melville, N.Y.). […] The eluted sample was reduced to dryness in a rotary evaporator and resuspended in 1.0 ml Buffer A.
(§5) Female ND4 Swiss Webster mice (21-24 g) were obtained from Harlan Sprague Dawley (Indianapolis, Ind.) and randomly placed in groups of five in cages with free access to food and water. […] The other CNI compounds were administered intraperitoneally or by oral gavage as a solution in water titrated with sufficient HCl to dissolve the drug. At various time points, ranging from 5 min to 4 days, a single group of animals was euthanized by carbon dioxide inhalation and bled by cardiac puncture using heparin as an anticoagulant. The blood from the five mice in the group was pooled and centrifuged at 14000×g for 10 min. The volume of plasma was measured, and equal volume of Buffer A added, and the mixture extracted and analyzed as described above, except that the dried eluates were resuspended in 200 μl Buffer A and 100 μl was injected onto the high performance liquid chromatography (HPLC) system.
(§6) The area under the plasma concentration-time curve (AUC) was determined, and bioavailability was measured as AUCoral /AUCi.p.. […] The volume of distribution (VD) was calculated as dose/B, and the total clearance rate (Cltot) calculated as β*VD. Cmax and tmax are the maximal plasma concentration and time of this measurement, respectively.

[8] = test system: Plasmodium falciparum clone Dd2; experiment: Antimalarial activity in vitro, hypoxanthine incorporation, clone Dd2; type: cell-based; conditions: for IC50: Plasmodium falciparum
Experimental: as §1
The Dd2 clone of P. falciparum, which was both chloroquine and pyrimethamine resistant, was utilized to compare the antimalarial activity of the remaining CNI compounds (Table VIII).

[9] = in vitro; type: in vitro ADME, mouse (ND4 Swiss Webster); conditions: for number of metabolites: mouse liver post-mitochondrial supernatant, NADPH; for metabolised at 1 h: mouse, liver post-mitochondrial supernatant, 60 min incubation, by peak area, read-out: drug altered (metabolic conversion)
Experimental: Several female ND4 Swiss Webster mice were euthanized by carbon dioxide inhalation and the livers excised and rinsed with ice cold phosphate buffered saline (pH 7.4). The livers were minced, gently homogenized in 50 mM phosphate buffer (pH 7.4) with a Dounce homogenizer, and centrifuged at 9600×g for 20 min. The post-mitochondrial supernatant was kept, glycerol added to 20%, and frozen at -70° C. in 1.0 ml aliquots until used. For each incubation, 1.0 ml of a 1.0 mg/ml drug solution was added to 3.0 ml of 50 mM phosphate buffer (pH 7.4), 1.0 ml of 2 mg/ml NADPH in 50 mM phosphate (pH 7.4), and 1.0 ml of the post-mitochondrial supernatant. Five hundred μl of each incubate was then immediately transferred to an ice-cold tube to provide the zero-time sample, and addition 500 μl aliquots removed to ice-cold tubes at 8, 15, 30, and 60 min. The samples were then extracted, and analyzed by HPLC as described in section 7.1. Control incubations were also performed where drug or post-mitochondrial supernatant was omitted. […] Peaks in the CNI compound incubations which increased over time, and were not present in control samples lacking the enzyme preparation were treated as putative metabolites.

[10] = for Clearance: Table IV, measured in a 25 gr mouse
Experimental: as §4, §5, §6

[11] = test system: Plasmodium falciparum clone HB3; experiment: Antimalarial activity in vitro, hypoxanthine incorporation, clone HB3; type: cell-based
Experimental: as §1

[12] = test system: mice; experiment: Toxicity study: median lethal dose in mice, i.p.; type: in vivo
Experimental: (§2) The doses of compounds of the invention found to be lethal to 50% of the mice (LD50) were determined by intraperitoneal injection of groups of five animals with increasing doses of each compound. CNI-0294 was administered from 0, 2, 10, 20, 40, 80, 160, 320, 640, 1280 mg/kg in 0.5 ml of water/HCl; CNI-1594 at 0, 2.4, 5, 10, 20, 40, 80 mg/kg in 0.5 ml of water/HCl; CNI-1794 at 0, 20, 50, 80 mg/kg in 0.5 ml of water/HCl; and CNI-1894 at 0, 10, 20, 40, 80, 240, 480, 960 mg/kg in water/HCl. […] The percentage of animals in each group which died were utilized to calculate the LD50 by non-linear curve fitting with the Enzfit software (Elsevier Bioscience; Cambridge, UK) programmed with the Chou equation (Chou 1976, J Theor Biol 39:253-276)).
(§3) The compounds (FIGS. 4A-E), were screened for toxicity via a modified LD50 assay procedure as described above in an outbred strain of mice.

[13] = Toxicity study: median lethal dose in mice, i.p.; type: in vivo; conditions: mouse, in vivo, ip
Experimental: as §2, §3

[14] = test system: HIV-1; experiment: Inhibition of HIV-1 replication in cultured macrophages (Table I); type: cell-based; conditions: Human immunodeficiency virus 1, Macrophage; 50% inhibition of viral growth, RT or p24, macrophages
Experimental: A quantitative measurement of the activity of the compounds of the invention to block the replication of HIV-1 in non-dividing cells can be determined by culture of a macrophage-tropic strain of HIV-1 on peripheral blood-derived macrophages. The cells are cultured for 5-6 days prior to infection in a medium consisting of DMEM supplemented with 10% type A/B human serum and 200 U/ml Macrophage Colony Stimulating Factor, with half the medium changed after 3 days, to reach a density of about 10^6 cells per 5 ml well. A macrophage-tropic viral stock may be grown on these cells. The concentration of infectious particles in the stock is estimated by measurement of p24 antigen concentration.
To test the effect of compounds of the invention on HIV- 1 infection in the above-described culture system, the medium is removed and replaced with medium containing HIV-1 at a concentration of 1 ng of p24 (10^4 TCID50 /ml (TCID=tissue culture infectious doses)) and a known concentration of the compound of the invention (the inhibitor). After 24 hours, the cultures are washed to remove non-adherent virus and the culture is re-fed with medium containing the inhibitor at the desired concentration. The amount of replication of HIV-1 is estimated by an assay of the reverse transcriptase activity or by an assay of the concentration of p24 antigen in the culture medium every 2-3 days throughout the post-infection period. In a preferred embodiment the anti-HIV potency of the candidate drug is measured by comparison of the concentration of reverse transcriptase (RT) or of p24 antigen in the medium of the treated and control cultures at the time of the peak of these values in non-treated control cultures, that is about day 5 or 6 post-infection. Repetition at various levels of inhibitor allows for the calculation of the concentration of inhibitor that achieves 50% inhibition of viral growth, IC50. Table I discloses the IC50 of various inhibitors.

[15] = DD2, read-out: IC50 ± standard deviation

## Nc1nc2c(ncn2[C@@H]2O[C@H](COP(=O)(O)OP(=O)(O)OP(O)(O)=S)[C@@H](O)[C@H]2O)c(=O)[nH]1 [(γ-S)GTP]
[1]
  inhibition of nuclear localization: blocked

## CC(=O)c1cc(Nc2cc(C)[n+](C)c(N)n2)cc(C(C)=O)c1.[Cl-] [CNI-0294, 2-amino-4-(3,5-diacetylphenyl)amino-1,6-dimethylpyrimidinium chloride]
[2]; read-out: CNI-0294 IC50
  IC50: 2.29 ± 0.22 µM
[3]; FCR3, read-out: CNI-0294 IC50
  IC50: 3.09 ± 0.3 µM
[4]; 50 mg/kg i.p. daily for 4 days
  suppression / cure of P. berghei infection: strongly suppress P. berghei infection in mice; also recorded: not completely cured
[4]; 50 mg/kg i.p. once daily for four days, P≤0.01
  reduction of parasitemia: 10 fold
[5]; D10, read-out: CNI-0294 IC50
  IC50: 4 ± 0.41 µM
[6]
  anti-malarial activity in vitro: considerable anti-malarial activity; also recorded: effective against various clones of P. falciparum
[6]; Plasmodium falciparum, series of cloned parasites, read-out: median inhibitory concentration (IC50)
  IC50: 1.79 to 4 µM
[7]; ip, 50 mg/kg
  CL/F: 35.4 mL/min
  Cmax: 18800 ng/mL
  Vd/F: 14.1 L
  k el: 4.17e-05 s⁻¹
[7]; po, 50 mg/kg
  Cmax: 400 ng/mL
[8]; DD2, read-out: CNI-0294 IC50
  IC50: 3.52 ± 0.1 µM
[8]; [15]
  IC50: 3.67 ± 0.57 µM
[9]
  number of metabolites: three minor and one major metabolite
  metabolised at 1 h: 43.5%
[10]; mouse, in vivo
  relative bioavailability: 6%
[10]; mouse, in vivo, 50 mg/kg
  relative bioavailability: 6%
[10]; mouse, in vivo, ip, 50 mg/kg
  A (zero time intercept, distribution phase): 14.00 and 16.07
  B (zero time intercept, elimination phase): 0.07 and 0.05
  Cltot: 62.70
  VD: 19.80
  duration of therapeutic plasma concentration (range of P. falciparum IC50): approximately one
  plasma maximal concentration: 18.76 to 18.93 µg/mL
  t1/2α: 0.62 and 0.40
  t1/2β: 4.62 and 3.65
  tmax: 5
  α: 1.12 and 1.74
  β: 0.19
[10]; mouse, in vivo, po, 50 mg/kg
  Bioavaliability: 0.06
  time drug was detectable in plasma: at least 6 hr
[11]; HB3, read-out: CNI-0294 IC50
  IC50: 1.79 ± 0.27 µM
[12]
  signs and time of toxic reactions / death: no overt signs of toxicity detectable at doses approaching the LD50
  tolerability: very well tolerated; also recorded: well tolerated
[13]
  LD50: 588 ± 65.8 mg/kg

## CC(=O)c1cc(Nc2cc(C)nc(N)n2)cc(C(C)=O)c1 [Compound No. 11, 2-amino-4-(3,5-diacetylphenyl)amino-6-methylpyrimidine]
[7]; ip, 50 mg/kg
  CL/F: 16.5 mL/min
  k el: 5.28e-05 s⁻¹
[14]
  IC50: 0.05 µM
[8]; [15]
  IC50: 20.3 ± 1.62 µM
[8]; clone Dd2
  fold less active than CNI-0294: approximately 5 fold
[9]
  number of metabolites: three minor and one major metabolite
  metabolised at 1 h: 65.2%
[10]
  Clearance: 16.50 mL/min
[10]; i.p., 50 mg/kg, water
  A (zero time intercept, distribution phase): 5.22 µg/mL
  B (zero time intercept, elimination phase): 0.14 µg/mL
  t1/2α: 0.38 h
  t1/2β: 3.65 h
  α: 1.83 h⁻¹
[10]; oral 50 mg/kg
  time drug was detectable in plasma: at least 6 hr
[10]; oral vs i.p.
  relative bioavailability: 15%
[10]; oral, 50 mg/kg, water, AUCoral/AUCi.p.
  Bioavaliability: 0.15
[10]; single 50 mg/kg dose, AUCoral against AUCi.p.
  relative bioavailability: 15%
[12]
  LD50 (median lethal dose): > 160 mg/kg
  tolerability: also well tolerated

## CC(=O)c1cccc(Nc2cc(C)nc(N)n2)c1 [Compound No. 15, 4-(3-acetylphenyl)amino-2-amino-6-methylpyrimidine]
[7]; ip, 20 mg/kg
  CL/F: 26.4 mL/min
  k el: 1.11e-05 s⁻¹
[14]
  IC50: 0.015 µM
[8]; [15]
  IC50: 23.7 ± 0.59 µM
[8]; clone Dd2
  IC50 relative to CNI-1194 and CNI-4594: equal to that for CNI-1194 or CNI-4594
[9]
  number of metabolites: three minor and one major metabolite
  metabolised at 1 h: 11.7%
[10]
  Clearance: 26.40 mL/min
[10]; i.p., 20 mg/kg, water
  A (zero time intercept, distribution phase): 1.10 µg/mL
  B (zero time intercept, elimination phase): 0.01 µg/mL
  VD: 39.60 L
  t1/2α: 0.32 h
  t1/2β: 17.33 h
  α: 2.14 h⁻¹
[12]
  LD50 (median lethal dose): 49.04 ± 0.08 mg/kg
  tolerability: appreciably more lethal
[12]; listed as CNI-1594
  signs and time of toxic reactions / death: death occurring in minutes and the animals displaying signs of acute neurotoxicity; also recorded: suggested a lethal neurotoxicity

## CCc1nc(N)nc(N)c1-c1ccc(Cl)cc1 [Pyrimethamine, reference compound]
[2]; read-out: Pyrimethamine IC50
  IC50: 17.8 ± 13.5 µM
[3]; FCR3, clone FCR-3, n = 2, read-out: Pyrimethamine IC50
  IC50: 0.04 ± 0.01 µM
[5]; clone D10, n = 2, read-out: Pyrimethamine IC50
  IC50: 171 ± 24.6 µM
[8]; DD2, read-out: Pyrimethamine IC50
  IC50: 104 ± 9.79 µM
[11]; clone HB3, n = 2, read-out: Pyrimethamine IC50
  IC50: 8.97 ± 2.75 µM
